From article PMC3003687, “α-Galactosylceramide Analogs with Weak Agonist Activity for Human iNKT Cells Define New Candidate Anti-Inflammatory Agents” (PLoS ONE, 2010) come the findings set out here.

In one assay the target is T1, hCD1d (Homo sapiens, UniProt P15813).
T1 construct: we generated soluble and fluorescent tetrameric hCD1d molecules loaded with each of the glycolipid analogs; made in house
Nature of the assay: Loading of hCD1d tetramers with variable glycolipid to CD1d ratios. The format is binding. Conditions: for lipid excess at which tetramers were efficiently loaded: 20 nM tetramers, 25 to 1000 fold molar excess of glycolipid to hCD1d, HDD3 clone. The text has this:
(§1) To characterize in more detail the iNKT cell TCR recognition of αGalCer analogs presented by human CD1d, we generated soluble and fluorescent tetrameric hCD1d molecules loaded with each of the glycolipid analogs. […] This was similar to the previously reported failure of mouse CD1d tetramer loaded with lysosulfatide to bind detectably to murine non-invariant and sulfatide specific NKT cells, despite a clear reactivity to this lipid upon presentation by APCs; [40]. […] To quantitate their binding avidities to iNKT cell TCRs, we used titration of analog-loaded hCD1d tetramers to determine equilibrium dissociation constants (KD), which are inversely proportional to avidity (Figure 3A and 3B).
(§2) Figure 3 Characterization of human iNKT cell TCR interactions with analog-loaded tetramers. (A) iNKT cell clones were stained with titrated amounts of hCD1d tetramers loaded with the indicated glycolipids (abbreviations as in legend to Figure 1), and the measured MFI values are plotted for selected glycolipids. (B) The equilibrium dissociation constants (KD, inversely proportional to TCR avidity) were determined as the concentrations of tetramers required to yield 50% of maximal binding. Data shown were obtained using the CD4^+ iNKT cell clone HDD3, and similar results (not shown) were obtained with a second CD4^+ clone (HDD11) and a CD4^−8^− double negative iNKT cell clone (HDE3). (C) Analysis of iNKT cell clones labeled with 20 nM of hCD1d tetramers which were loaded with variable excesses of analog to constant hCD1d (25 to 1000 fold molar excess of glycolipid to hCD1d protein). The measured MFI values were normalized as the percent of the maximum staining intensity obtained with each analog loaded tetramer. Data presented were generated with HDD3 (CD4+) iNKT cell clone, and similar results (not shown) were obtained with HDE3 (DN) clone.

The subject of another assay is human iNKT cell clones. The assay can be described thus: Cytokine ELISA of human iNKT cell clones stimulated with glycolipid-pulsed CD1d-transfected HeLa cells. The format is cell-based. The note with it: for EC50: Homo sapiens, iNKT, HDD3 clone, IL-4 levels did not reach a plateau; for iNKT cell clone cytokine response / agonist activity: dose range, IFNγ, IL-4, IL-13, clones HDD3, HDD11, HDE3, HDA7. The method, then:
Capture ELISA assays were used for measurement of cytokine responses of human iNKT cells to αGalCer analogs. One day prior to the experiment, CD1d transfected HeLa cells were plated at 25×10^3 cells/well in 100 µL of medium in flat-bottom 96 well plates. Glycolipids were then added in 100 µL of medium to give final concentrations ranging from 0.05 to 10^4 nM. The APCs were incubated for approximately 18 hours with the glycolipids and then irradiated (10,000 Rad) and washed twice with PBS prior to addition of 25×10^3 iNKT cells well in 300 µL. Supernatants were harvested after 24 hours of co-culture and stored frozen at -20°C. After thawing, aliquots of the supernatants were assayed for specific cytokines by ELISA using capture and biotin-labeled detection antibody pairs specific for GM-CSF, IL-2, IL-4, IL-12p70 and IL-13 (all obtained from BD Biosciences), IFNγ (Thermo-Scientific) or IL-18 (MBL). Specific signals were developed using HRP- conjugated streptavidin (BD Biosciences) and Turbo TMB substrate (Thermo-Scientific). Supernatants were tested pure and/or diluted to give values within a quantitative linear standard curve generated with recombinant cytokines. Curves of dose-dependent cytokine responses and graphs were plotted using the Graphpad Prism Software. EC50 values were calculated using the function log (agonist) response with variable slope, and statistical analyses were carried out using the same software. To calculate concentration-dependent cytokine ratios, IL-4/IFNγ and IL-13/IFNγ ratios were calculated using cytokine values from which background levels (i.e. levels in cultures receiving DMSO vehicle alone) were subtracted. Ratios were calculated by dividing IL-4 or IL-13 concentrations in pg/mL by IFNγ concentration in ng/mL.
(In general: ELISA stands for enzyme-linked immunosorbent assay.)

Assay [1] relates to human iNKT cells and NK cells. Nature of the assay: In vitro transactivation assay (CFSE-labeled iNKT cells co-cultured with PBMC). The format is cell-based. The note with it: 24 h; for IL-12 levels in supernatants / IL-13 levels in supernatants / IL-18 levels in supernatants / global IFNγ production in supernatants / ability to activate iNKT cells and stimulate NK cell transactivation (IFNγ+ cells): 100 nM; for IL-12 levels in supernatants / IL-13 levels in supernatants / IL-18 levels in supernatants / global IFNγ production in supernatants: ELISA; for ability to activate iNKT cells and stimulate NK cell transactivation (IFNγ+ cells): iNKT/PBMC 1/10, compared with KRN7000. The method, then: iNKT cells were stained for 5 minutes with 1–20 µM of CFSE (Molecular probes) and 5% FCS in PBS and washed twice. As a positive control, a fraction of CFSE-labeled iNKT cells were preactivated for 30 minutes with 1 µg/mL of PMA and 250 ng/mL of Ionomycin (Sigma-Aldrich) in culture medium and extensively washed. The experiment was initiated by adding CFSE-labeled unstimulated or PMA/Ionomycin-preactivated iNKT cells to freshly prepared PBMC pulsed with vehicle or αGalCer analogs at the indicated concentrations and at an iNKT/PBMC ratio of 1/10 or 1/40. Supernatants and cells were harvested from parallel conditions after the indicated time of co-culture. For intracellular cytokine staining, brefeldin A (Golgiplug, BD Biosciences) was added 4 h before harvesting the cells, which were fixed with 1% paraformaldehyde and permeabilized with 0.1% saponin (Sigma-Aldrich) prior to mAb staining. Experiments with blocking antibodies were performed with 10 µg/mL of preservative-free mAbs, including isotype matched control, anti-IL-2, anti-IL-12, anti-IFNγ and anti-CD40L (all from BD Biosciences) or anti-IL-18 (MBL). For detection of CD40L expression by iNKT cells, co-cultures of iNKT and PBMC were prepared as above, except that monensin (Golgistop, BD Biosciences) and fluorescent CD40L specific mAb (1/10 or 1/20 final dilution) were added at the beginning of the experiment, as previously described.
Figure 6 A novel in vitro “transactivation assay” to assess the ability of human iNKT cells to activate other leukocytes. (A) Format for analysis of transactivation of bystander leukocytes. Flow cytometric analysis was carried out for culture containing iNKT cells co-cultured for 24 hours with fresh human PBMC at a 1/10 ratio. For the intracellular detection of IFNγ, Brefeldin A was added for the last 4 hours. Representative electronic gating is shown for the discrimination of CFSE-labeled iNKT cells, B cells, T cells, and NK cells to measure IFNγ expression (or CD69 expression, not shown). Filled black histograms show staining with vehicle control and are overlaid with open gray histograms for stimulation with 100 nM of KRN7000. (B) Dose-dependent IFNγ and CD40L expression by iNKT cells (top and middle graph, respectively) and IFNγ production by transactivated NK cells (bottom graph), after 24 h of co-culture of CFSE-labeled iNKT cells and PBMCs at a 1/10 ratios and the indicated concentration of either KRN7000 (black filled circles) or the adamantanoyl (AD) analog (open circles). Data are presented for a CD4^+ clone (HDD3), and similar results (not shown) were obtained with a DN clone (HDE3). (C) Effect of specific blockade of various cytokines and CD40L on the activation of iNKT cells and transactivated NK cells. CFSE-labeled iNKT cells and PBMCs were co-cultured at a 1/40 ratio for the indicated time, in the presence of KRN7000 at 25 nM and 10 µg/mL of isotype matched control or specific blocking antibodies as indicated. Average percentages of IFNγ^+ iNKT cells and NK cells, assessed by intracellular staining at 24, 48 and 66 hours, are indicated in the left and right plots, respectively.
Figure 7 Comparison of αGalCer analogs for their ability to induce NK cell transactivation. (A) iNKT cell clones were co-cultured for 24 hours with fresh human PBMC at a 1/10 ratio with 100 nM of the indicated analogs, and Brefeldin A was added for the last 4 hours. The percentages of IFNγ^+ iNKT cells (open bars) and IFNγ^+ NK cells (filled bars) are indicated. Cytokine levels were assessed by ELISA in supernatants from identical conditions in absence of Brefeldin A treatment: (B) IFNγ levels (open bars) and IL-13 levels (filled bars); the detection limit was 82.3 ng/mL for both cytokines. (C) IL-12 levels (open bars) and IL-18 levels (filled bars); the detection limit was 27.4 ng/mL. Results obtained with a CD4^+ clone (HDD3) are presented, and similar data (not shown) were obtained with a DN clone (HDE3).

The next assay deals with Human iNKT TCRs (Homo sapiens, UniProt A0A075B6N4+A0A0B4J240+P15813). Nature of the assay: Equilibrium binding of analog-loaded hCD1d tetramers to iNKT cell clones.
Text: For flow cytometric analysis, 6B11 (Vα24Jα18 specific) and mAbs specific for human CD3, CD4, CD8α, CD19, CD40L (CD154), CD56, CD69, GM-CSF & IFNγ were obtained from BD Biosciences. IL-4 and IL-13 specific mAbs were from Biolegend. Vα24 (C15) and Vβ11 (C21) specific mAb were from Immunotech. For antibody blocking in culture assays, non-specific isotype matched control, IL-2, IFNγ, IL-12p70 and CD40L specific mAbs without preservatives were obtained from BD Biosciences and IL-18 specific mAb from Medical & Biological Laboratories (MBL, Nagoya, Japan). Phycoerythrin and allophycocyanin labeled human CD1d tetramers were prepared in our laboratory as previously described. Curves of tetramer equilibrium binding constants and graphs were plotted using the Graphpad Prism Software (Version 5). KD values were calculated using the function non-linear fit (hyperbola, one binding site).
as §1, §2

T1 sequence (P15813 20-301 limits assumed): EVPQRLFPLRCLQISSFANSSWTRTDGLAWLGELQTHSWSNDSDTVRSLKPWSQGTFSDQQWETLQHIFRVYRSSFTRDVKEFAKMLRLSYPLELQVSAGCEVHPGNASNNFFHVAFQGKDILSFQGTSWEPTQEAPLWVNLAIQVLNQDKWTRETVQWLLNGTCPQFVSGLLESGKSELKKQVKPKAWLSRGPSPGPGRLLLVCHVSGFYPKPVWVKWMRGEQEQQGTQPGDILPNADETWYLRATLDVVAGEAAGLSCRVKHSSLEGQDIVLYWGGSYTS
T1 sequence (P61769 21-119 partner): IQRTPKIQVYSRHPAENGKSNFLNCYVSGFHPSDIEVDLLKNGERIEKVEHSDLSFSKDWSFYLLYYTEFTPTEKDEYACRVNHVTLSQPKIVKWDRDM
Chain of Human iNKT TCRs (P15813 20-301): as the sequence (P15813 20-301 limits assumed) above
Chain of Human iNKT TCRs (P01848 whole entry, further chain): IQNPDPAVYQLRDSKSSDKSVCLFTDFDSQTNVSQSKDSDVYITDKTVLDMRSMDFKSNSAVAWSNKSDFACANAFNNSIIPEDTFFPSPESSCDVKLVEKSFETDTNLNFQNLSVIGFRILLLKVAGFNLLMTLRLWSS
Chain of Human iNKT TCRs (A0A0B4J240 22-114): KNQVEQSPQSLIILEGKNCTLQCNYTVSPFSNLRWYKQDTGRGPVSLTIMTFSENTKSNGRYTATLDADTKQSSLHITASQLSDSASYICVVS
Chain of Human iNKT TCRs (P61769 21-119, further chain): as the sequence (P61769 21-119 partner) above
Chain of Human iNKT TCRs (A0A075B6N4 22-114): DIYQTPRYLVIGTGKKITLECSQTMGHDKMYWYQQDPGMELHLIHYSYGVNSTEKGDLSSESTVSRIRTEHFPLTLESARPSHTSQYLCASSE

Regarding `CCCCCCCCCCCCCC[C@@H](O)[C@@H](O)[C@H](CO[C@H]1O[C@H](CO)[C@H](O)[C@H](O)[C@H]1O)NC(=O)C12CC3CC(CC(C3)C1)C2` [AD], at hCD1d, the “lipid excess at which tetramers were efficiently loaded” value (“lipid excess” for short) is reported as 25–50 fold. Besides, the EC50 with human iNKT cell clones was greater than 10 µM. In assay [1], the “IL-12 levels in supernatants” value was “undetectable”; the “IL-13 levels in supernatants” value is “lower, but still detectable, IL-13 levels”; the “IL-18 levels in supernatants” value is recorded as “remained low”; the “global IFNγ production in supernatants” value is listed as “lower global IFNγ production”. Besides, the “ability to activate iNKT cells and stimulate NK cell transactivation (IFNγ+ cells)” value (shortened to “ability”) in assay [1] was “lower degree of iNKT cell activation with a limited transactivation of NK cells”. For the same molecule, the “CD40L and IFNγ expression by iNKT cells” value in assay [1] (iNKT/PBMC 1/10, dose range) is recorded as “induced with high doses”.
Regarding `CCCCCCCCCCCCCC[C@@H](O)[C@@H](O)[C@H](CO[C@H]1O[C@H](CO)[C@H](O)[C@H](O)[C@H]1O)NC(=O)c1cccc(Br)c1` [BB], at hCD1d, the “lipid excess” value is reported as 25–50 fold. Besides, the EC50 with human iNKT cell clones is greater than 10 µM. For the same molecule, in assay [1], the “IL-12 levels in supernatants” value was “undetectable”; the “IL-13 levels in supernatants” value is given as “lower, but still detectable, IL-13 levels”; the “IL-18 levels in supernatants” value is on record as “remained low”; the “global IFNγ production in supernatants” value is recorded as “lower global IFNγ production”. Further, the “ability” value in assay [1] was “lower degree of iNKT cell activation with a limited transactivation of NK cells”.
With `CCCCCCCCCCCCCC[C@@H](O)[C@@H](O)[C@H](CO[C@H]1O[C@H](CO)[C@H](O)[C@H](O)[C@H]1O)NC(=O)c1ccc(F)c(F)c1` [DFB], on hCD1d, the “binding to hCD1d” value is given as “weak binding to hCD1d” and the “lipid excess” value is on record as “much higher lipid excess was necessary”. In the assay with human iNKT cell clones, the EC50 was greater than 10 µM. Moreover, in assay [1], the “IL-12 levels in supernatants” value is on record as “undetectable”; the “IL-13 levels in supernatants” value was “lower, but still detectable, IL-13 levels”; the “IL-18 levels in supernatants” value is “remained low”; the “global IFNγ production in supernatants” value is “lower global IFNγ production”. Also, in assay [1], the “ability” value is on record as “lower degree of iNKT cell activation with a limited transactivation of NK cells”.
As to `CCCCCCCCCCCCCC[C@@H](O)[C@@H](O)[C@@H](N)CO[C@H]1O[C@H](CO)[C@H](O)[C@H](O)[C@H]1O` [Lyso], the “staining of iNKT cell clones by analog-loaded hCD1d tetramers” value on Human iNKT TCRs is “failed to detectably stain any of our iNKT cell clones”. Also, the “iNKT cell clone cytokine response / agonist activity” value in the assay with human iNKT cell clones is listed as “substantially lower iNKT cell response”. Also, in assay [1], the “IL-12 levels in supernatants” value is “undetectable”; the “IL-13 levels in supernatants” value is “lower, but still detectable, IL-13 levels”; the “IL-18 levels in supernatants” value is reported as “remained low”; the “global IFNγ production in supernatants” value is reported as “lower global IFNγ production”. In assay [1], the “ability” value is given as “lower degree of iNKT cell activation with a limited transactivation of NK cells”.
In the case of `CCCCCCCCCCCCCC[C@@H](O)[C@@H](O)[C@H](CO[C@H]1O[C@H](CO)[C@H](O)[C@H](O)[C@H]1O)NC(=O)c1ccc(C)cc1` [Tol], the “lipid excess” value on hCD1d is 25–50 fold. Further, in the assay with human iNKT cell clones, the “iNKT cell clone cytokine response / agonist activity” value was “substantially lower iNKT cell response”. In addition, in assay [1], the “IL-12 levels in supernatants” value was “detectable IL-12 generation”, the “IL-13 levels in supernatants” value is on record as “high IL-13 levels”, the “IL-18 levels in supernatants” value is given as “enhanced IL-18 levels compared to vehicle control” and the “global IFNγ production in supernatants” value is recorded as “high global production of IFNγ”.

What is called EC50 is the midpoint of the concentration-response curve. A high value points to weaker potency.
